Laboratory results reported in ChEMBL document CHEMBL1201862, “PubChem BioAssay data set” (2004).
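Tested at 5 concentrations; 48 h exposure; 96-well plates; endpoints linearly interpolated, else capped at highest concentration. GI50 is the concentration that inhibits growth by half.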 Active and inactive are the calls of the source. Cut-off read from the data, not from the text of the source: active = GI50 up to about 1.1 µM and inactive = higher.

Tests used:
Experiment in all cases: NCI tumour cell line growth inhibition, 48 h
[1] = tested on: 786-0
[2] = tested on: A498
[3] = tested on: A549
[4] = tested on: ACHN
[5] = tested on: CAKI-1
[6] = tested on: CCRF-CEM
[7] = tested on: COLO 205
[8] = tested on: DLD-1
[9] = tested on: EKVX
[10] = tested on: HCC 2998
[11] = tested on: HCT-116
[12] = tested on: HCT-15
[13] = tested on: HL-60
[14] = tested on: HOP-18
[15] = tested on: HOP-62
[16] = tested on: HOP-92
[17] = tested on: HT-29
[18] = tested on: IGROV-1
[19] = tested on: K562
[20] = tested on: KM-20L2
[21] = tested on: KM12
[22] = tested on: LOX IMVI
[23] = tested on: LXFL 529
[24] = tested on: M14
[25] = tested on: M19-MEL
[26] = tested on: MOLT-4
[27] = tested on: Malme-3M
[28] = tested on: NCI-H226
[29] = tested on: NCI-H23
[30] = tested on: NCI-H460
[31] = tested on: NCI-H522
[32] = tested on: OVCAR-3
[33] = tested on: OVCAR-4
[34] = tested on: OVCAR-5
[35] = tested on: OVCAR-8
[36] = tested on: RPMI-8226
[37] = tested on: RXF 393
[38] = tested on: SF-268
[39] = tested on: SF-295
[40] = tested on: SF-539
[41] = tested on: SK-MEL-28
[42] = tested on: SK-MEL-2
[43] = tested on: SK-MEL-5
[44] = tested on: SK-OV-3
[45] = tested on: SN12C
[46] = tested on: SNB-19
[47] = tested on: SNB-78
[48] = tested on: SR
[49] = tested on: SW-620
[50] = tested on: TK-10
[51] = tested on: U-251
[52] = tested on: UACC-257
[53] = tested on: UACC-62
[54] = tested on: UO-31
[55] = tested on: XF498
[56] = tested on: DMS-114
[57] = tested on: SNB-75
[58] = tested on: DMS-273
[59] = tested on: BT-549
[60] = tested on: DU-145
[61] = tested on: Hs-578T
[62] = tested on: MCF7
[63] = tested on: MDA-MB-231
[64] = tested on: MDA-MB-435
[65] = tested on: MDA-N
[66] = tested on: NCI/ADR-RES
[67] = tested on: PC-3
[68] = tested on: T47D

Measured: GI50

CC(C)/C=C1\CCC(CN2CCOCC2)C1=O (stereo unspecified)
active: [36] 0.964 µM
inactive: [1] 3.66 µM | [2] > 35.9 µM | [3] 26.3 µM | [4] 18 µM | [5] 4.24 µM | [6] 2.65 µM | [7] 6.85 µM | [8] 2.69 µM | [9] 19.1 µM | [10] 20.2 µM | [11] 5.35 µM | [13] 2.13 µM | [14] 17.7 µM | [15] > 100 µM | [16] 18.4 µM | [17] 6.7 µM | [18] 14.4 µM | [19] 2.56 µM | [20] 20.1 µM | [21] 10.5 µM | [22] 24.4 µM | [23] 2.74 µM | [24] 11.9 µM | [25] 23.4 µM | [26] 2.99 µM | [27] 15.7 µM | [28] 30.5 µM | [29] 17.4 µM | [30] 28.1 µM | [31] 2.01 µM | [32] 18.2 µM | [33] 20.8 µM | [34] 22.5 µM | [35] 11.1 µM | [37] 4.94 µM | [38] 22.9 µM | [39] 45 µM | [40] 15.5 µM | [41] 17.7 µM | [42] 17.7 µM | [43] 18.6 µM | [44] > 100 µM | [45] 19.3 µM | [46] > 100 µM | [47] 12.5 µM | [48] 3.75 µM | [49] 2.7 µM | [50] 12.9 µM | [51] > 42.4 µM | [52] 7.78 µM | [53] 18 µM | [54] 20.7 µM | [55] 18.3 µM
5.85 µM: [12]

COc1ccc(C2COc3c(ccc(OC)c3OC)C2=O)cc1OC (stereo unspecified)
inactive: [1] > 100 µM | [2] > 100 µM | [3] > 100 µM | [4] > 100 µM | [5] > 100 µM | [6] > 100 µM | [7] > 100 µM | [8] > 100 µM | [56] 68.7 µM | [9] > 100 µM | [10] > 100 µM | [11] > 100 µM | [13] > 100 µM | [14] > 100 µM | [15] > 100 µM | [16] > 100 µM | [17] > 100 µM | [18] > 100 µM | [19] > 100 µM | [20] > 100 µM | [21] > 100 µM | [22] > 100 µM | [23] > 100 µM | [24] > 100 µM | [25] > 100 µM | [26] > 100 µM | [27] > 100 µM | [28] > 100 µM | [29] > 100 µM | [30] > 100 µM | [31] > 100 µM | [32] > 100 µM | [33] > 100 µM | [35] > 100 µM | [36] > 100 µM | [37] > 100 µM | [38] > 100 µM | [39] > 100 µM | [40] > 100 µM | [41] > 100 µM | [43] > 100 µM | [44] > 100 µM | [45] > 100 µM | [46] > 100 µM | [57] > 100 µM | [47] > 100 µM | [48] > 100 µM | [49] > 100 µM | [50] > 100 µM | [51] > 100 µM | [52] > 100 µM | [53] > 100 µM | [54] > 100 µM | [55] 94.8 µM

COc1ccc(C2Oc3ccc(O)cc3[C@@H]2C)cc1OC (stereo partly specified)
inactive: [1] > 100 µM | [3] > 100 µM | [4] > 100 µM | [5] 18.9 µM | [6] 17.5 µM | [7] > 100 µM | [8] > 100 µM | [56] 59.8 µM | [58] > 100 µM | [9] > 100 µM | [10] > 100 µM | [11] > 100 µM | [13] 34.3 µM | [14] > 100 µM | [15] > 100 µM | [16] 23 µM | [17] > 100 µM | [18] > 100 µM | [19] > 100 µM | [20] > 100 µM | [21] > 100 µM | [22] > 100 µM | [23] 71 µM | [24] > 100 µM | [25] > 100 µM | [26] 37.6 µM | [27] > 100 µM | [28] > 100 µM | [29] 94.6 µM | [30] > 100 µM | [31] 27.5 µM | [32] > 100 µM | [33] 97.7 µM | [34] > 100 µM | [35] > 100 µM | [36] 4.05 µM | [37] 58.5 µM | [38] > 100 µM | [39] > 100 µM | [40] > 100 µM | [41] > 100 µM | [42] > 100 µM | [43] 48.5 µM | [44] > 100 µM | [46] > 100 µM | [57] 30.2 µM | [47] > 100 µM | [49] > 100 µM | [50] > 100 µM | [51] > 100 µM | [52] > 100 µM | [53] > 100 µM | [54] 63.1 µM | [55] > 100 µM
52.6 µM: [12]

CCCCCCCCCCCCCCCCCCOCC(COP(=O)([O-])OCC[N+](C)(C)C)OC (stereo unspecified) [EDELFOSINE]
3.36 µM: [12]
inactive: [1] 22.3 µM | [2] 19.8 µM | [3] 21.4 µM | [4] > 72.8 µM | [59] 48.8 µM | [5] 13.1 µM | [6] 7.62 µM | [7] 2.65 µM | [8] 5.09 µM | [56] 13.4 µM | [58] 3.03 µM | [60] > 100 µM | [9] 44.3 µM | [10] 2.38 µM | [11] 14.7 µM | [13] 3.94 µM | [14] 13.3 µM | [15] 19.2 µM | [16] 8.75 µM | [17] 7.28 µM | [61] > 100 µM | [18] 6.67 µM | [19] 44.3 µM | [20] 2.9 µM | [21] 5.09 µM | [22] 15.4 µM | [24] 32.9 µM | [25] 4.58 µM | [62] 27.5 µM | [63] 59.7 µM | [64] 98.4 µM | [65] > 69.3 µM | [26] 11.5 µM | [27] 29.6 µM | [28] 26.4 µM | [29] 41.6 µM | [30] 7.05 µM | [31] 11.4 µM | [66] 42.3 µM | [32] 34.3 µM | [33] 26.6 µM | [34] 15.9 µM | [35] 32.1 µM | [67] 7.19 µM | [36] 20.9 µM | [37] 13.9 µM | [38] 17.2 µM | [39] 9.66 µM | [40] > 58.5 µM | [41] 41.2 µM | [42] 31.3 µM | [43] 41.8 µM | [44] 18.2 µM | [45] 12.1 µM | [46] 20.7 µM | [57] 8.75 µM | [47] 19.3 µM | [48] 7.87 µM | [49] 19.1 µM | [68] > 100 µM | [50] 19 µM | [51] 13.6 µM | [52] 24 µM | [53] 20.5 µM | [54] 27.4 µM | [55] 11.2 µM
